Assay results as given in patent US12091426B2, “Bifunctional degraders of hematopoietic progenitor kinase and therapeutic uses thereof” (Nurix Therapeutics, Inc., priority 2021, dated 2024).

Target: T1, HPK1 (Homo sapiens, UniProt Q92918)
T1 construct: A HiBiT tag was introduced by CRISPR on the N terminus of HPK1 in Jurkat cells; host or cells: Jurkat cells (ATCC TIB-152), monoclonal line with CRISPR knock-in of HiBiT at the endogenous HPK1 locus
Assay: HPK1 Cellular HiBit Degradation Assay
Assay type: cell-based
Settings: HiBiT HPK1 Jurkat cells, 24 hrs; for DC50: concentration at which 50% of HPK1 was remaining, read-out: DC50 Category; for Dmax: Jurkat, read-out: Dmax Category
In short: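 Jurkat cells with CRISPR knock-in N-terminal HiBiT-HPK1 were treated with CTMs (11-point, 3.16-fold, 10 uM to 0.1 nM final) for 24 hrs at 37° C. HiBiT lytic luminescence, with parental Jurkat as background and DMSO as 100%, gave % HPK1 remaining; four-parameter fit yielded DC50 and Dmax (100 minus lowest % remaining).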

[1] = maximum degradation vs DMSO vehicle control

T1 sequence (Q92918 whole entry): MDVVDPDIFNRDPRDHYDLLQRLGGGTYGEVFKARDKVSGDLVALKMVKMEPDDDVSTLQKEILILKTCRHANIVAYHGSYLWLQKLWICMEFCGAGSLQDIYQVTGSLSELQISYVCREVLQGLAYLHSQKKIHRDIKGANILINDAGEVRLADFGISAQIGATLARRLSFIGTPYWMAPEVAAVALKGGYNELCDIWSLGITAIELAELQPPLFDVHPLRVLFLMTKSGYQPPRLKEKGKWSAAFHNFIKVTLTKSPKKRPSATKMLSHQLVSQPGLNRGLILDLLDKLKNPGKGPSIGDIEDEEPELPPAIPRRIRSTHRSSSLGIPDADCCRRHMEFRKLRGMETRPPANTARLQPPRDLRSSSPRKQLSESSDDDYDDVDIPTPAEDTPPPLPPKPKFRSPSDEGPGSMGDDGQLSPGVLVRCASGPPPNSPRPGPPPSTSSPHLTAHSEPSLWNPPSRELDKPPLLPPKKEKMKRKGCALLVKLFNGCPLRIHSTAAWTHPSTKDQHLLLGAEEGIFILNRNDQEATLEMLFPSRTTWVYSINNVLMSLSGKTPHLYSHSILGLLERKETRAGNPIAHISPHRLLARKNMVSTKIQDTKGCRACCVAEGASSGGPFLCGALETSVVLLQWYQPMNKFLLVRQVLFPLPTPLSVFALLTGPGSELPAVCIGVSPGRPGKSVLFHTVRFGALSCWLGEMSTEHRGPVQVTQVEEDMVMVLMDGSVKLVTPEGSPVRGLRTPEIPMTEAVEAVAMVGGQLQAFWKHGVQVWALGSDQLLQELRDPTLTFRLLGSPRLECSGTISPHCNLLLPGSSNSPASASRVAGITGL

Row | SMILES | DC50 [nM] | Dmax [1] [%] | Dmax Category [1]
1 | CC(C)n1cnc2cc(-c3ccc4c(c3)N([C@H]3C[C@@H](N5CCCCC5)C3)C(=O)C43CCN(C(=O)C4CCN(C(=O)C5CCN(c6ncc(C7CCC(=O)NC7=O)cn6)CC5)CC4)CC3)nc(NC3CC3)c21 (mixture of isomers) [Example 89, (3RS)-3-(2-{4-[4-({6-[4-(cyclopropylamino)-3-(propan-2-yl)-3H-imidazo[4,5-c]pyridin-6-yl]-2-oxo-1-[(1S,3S)-3-(piperidin-1-yl)cyclobutyl]-1,2-dihydrospiro[indole-3,4′-piperidin]-1′-yl}carbonyl)piperidine-1-carbonyl]piperidin-1-yl}pyrimidin-5-yl)piperidine-2,6-dione] | 100 to 500 | 50 to 70 | 
2 | CC(C)n1cnc2cc(-c3ccc4c(c3)N([C@H]3C[C@@H](N5CCCCC5)C3)C(=O)C43CCN(C(=O)C4CCN(C(=O)[C@H]5CC[C@H](Nc6cccc7c6C(=O)N(C6CCC(=O)NC6=O)C7=O)CC5)CC4)CC3)nc(Nc3ccccc3F)c21 (mixture of isomers) [Example 57, 2-[(3RS)-2,6-dioxopiperidin-3-yl]-4-{[(1R,4R)-4-{4-[(6-{4-[(2-fluorophenyl)amino]-3-(propan-2-yl)-3H-imidazo[4,5-c]pyridin-6-yl}-2-oxo-1-[(1S,3S)-3-(piperidin-1-yl)cyclobutyl]-1,2-dihydrospiro[indole-3,4′-piperidin]-1′-yl)carbonyl]piperidine-1-carbonyl}cyclohexyl]amino}-2,3-dihydro-1H-isoindole-1,3-dione] | 100 to 500 | 70 to 85 | 
3 | CC(C)n1cnc2cc(-c3ccc4c(c3)N([C@H]3C[C@@H](N5CCCCC5)C3)C(=O)C43CCN(C(=O)C4CN(C(=O)C5CCN(c6ccc(C7CCC(=O)NC7=O)cn6)CC5)CCC4(F)F)CC3)nc(NC3CC3)c21 (mixture of isomers) [Example 285, (3RS)-3-(6-{4-[3-({6-[4-(cyclopropylamino)-3-(propan-2-yl)-3H-imidazo[4,5-c]pyridin-6-yl]-2-oxo-1-[(1S,3S)-3-(piperidin-1-yl)cyclobutyl]-1,2-dihydrospiro[indole-3,4′-piperidin]-1′-yl}carbonyl)-4,4-Difluoropiperidine-1-carbonyl]piperidin-1-yl}pyridin-3-yl)piperidine-2,6-dione] | 100 to 500 | 50 to 70 | 
4 | CC(C)n1cnc2cc(-c3ccc4c(c3)N([C@H]3C[C@@H](N5CCCCC5)C3)C(=O)C43CCN(C(=O)C4CCN(C(=O)[C@H]5CC[C@H](Nc6cc(C7CCC(=O)NC7=O)ccn6)CC5)CC4)CC3)nc(Nc3ccccc3F)c21 (mixture of isomers) [Example 52, (3RS)-3-(2-{[(1R,4R)-4-{4-[(6-{4-[(2-fluorophenyl)amino]-3-(propan-2-yl)-3H-imidazo[4,5-c]pyridin-6-yl}-2-oxo-1-[(1S,3S)-3-(piperidin-1-yl)cyclobutyl]-1,2-dihydrospiro[indole-3,4′-piperidin]-1′-yl)carbonyl]piperidine-1-carbonyl}cyclohexyl]amino}pyridin-4-yl)piperidine-2,6-dione] | 500 to 1000 | 50 to 70 | 
5 | CC(C)n1cnc2cc(-c3ccc4c(c3)N([C@H]3C[C@@H](N5CCCCC5)C3)C(=O)C43CCN(C(=O)C4CCN(C(=O)[C@H]5CC[C@H](Nc6ccc(C7CCC(=O)NC7=O)cc6)CC5)CC4)CC3)nc(NC3CC3)c21 (mixture of isomers) [Example 53, (3RS)-3-(4-{[(1R,4R)-4-[4-({6-[4-(cyclopropylamino)-3-(propan-2-yl)-3H-imidazo[4,5-c]pyridin-6-yl]-2-oxo-1-[(1S,3S)-3-(piperidin-1-yl)cyclobutyl]-1,2-dihydrospiro[indole-3,4′-piperidin]-1′-yl}carbonyl)piperidine-1-carbonyl]cyclohexyl]amino}phenyl)piperidine-2,6-dione] | 100 to 500 | 50 to 70 | 
6 | CC(C)n1cnc2cc(-c3ccc4c(c3)N([C@H]3C[C@@H](N5CCCCC5)C3)C(=O)C43CCN(C(=O)[C@]4(C)CCN(C(=O)C5CCN(c6ccc(C7CCC(=O)NC7=O)cn6)CC5)C4)CC3)nc(NC3CC3)c21 (mixture of isomers) [Example 186, (3RS)-3-(6-{4-[(3R)-3-({6-[4-(cyclopropylamino)-3-(propan-2-yl)-3H-imidazo[4,5-c]pyridin-6-yl]-2-oxo-1-[(1S,3S)-3-(piperidin-1-yl)cyclobutyl]-1,2-dihydrospiro[indole-3,4′-piperidin]-1′-yl}carbonyl)-3-methylpyrrolidine-1-carbonyl]piperidin-1-yl}pyridin-3-yl)piperidine-2,6-dione] | 100 to 500 | 70 to 85 | 
7 | Cc1cc(F)c(Nc2nc(-c3ccc4c(c3)N([C@H]3C[C@@H](N5CCCCC5)C3)C(=O)C43CCN(C(=O)C4CCN(C(=O)C5CCN(c6ccc(C7CCC(=O)NC7=O)cn6)CC5)CC4)CC3)cc3ncn(C(C)C)c23)cc1C(=O)NC(C)C (mixture of isomers) [Example 72, 5-[(6-{1′-[1-(1-{5-[(3RS)-2,6-dioxopiperidin-3-yl]pyridin-2-yl}piperidine-4-carbonyl)piperidine-4-carbonyl]-2-oxo-1-[(1S,3S)-3-(piperidin-1-yl)cyclobutyl]-1,2-dihydrospiro[indole-3,4′-piperidin]-6-yl}-3-(propan-2-yl)-3H-imidazo[4,5-c]pyridin-4-yl)amino]-4-fluoro-2-methyl-N-(propan-2-yl)benzamide] | 100 to 500 | 70 to 85 | 
8 | CC(C)n1cnc2cc(-c3ccc4c(c3)N(C3CC(N5CCCCC5)C3)C(=O)C43CCN(C(=O)CC4(C)CCN(C(=O)C5CCN(c6ccc(C7CCC(=O)NC7=O)cn6)CC5)CC4)CC3)nc(NC3CC3)c21 (racemic) [Example 149, (3RS)-3-(6-{4-[4-(2-{6-[4-(cyclopropylamino)-3-(propan-2-yl)-3H-imidazo[4,5-c]pyridin-6-yl]-2-oxo-1-[(1S,3S)-3-(piperidin-1-yl)cyclobutyl]-1,2-dihydrospiro[indole-3,4′-piperidin]-1′-yl}-2-oxoethyl)-4-methylpiperidine-1-carbonyl]piperidin-1-yl}pyridin-3-yl)piperidine-2,6-dione] | < 100 |  | B (B: >70%-<85%)

Second part, led by results:

Row | DC50 [nM] | Dmax [1] [%] | SMILES | Dmax Category [1]
9 | < 100 | 50 to 70 | CC(C)n1cnc2cc(-c3ccc4c(c3)N([C@H]3C[C@@H](N5CCCCC5)C3)C(=O)C43CCN(C(=O)[C@@H]4CCN(C(=O)C5CCN(c6ccc(C7CCC(=O)NC7=O)cn6)CC5)[C@@H]4C)CC3)nc(Nc3ccccc3F)c21 (mixture of isomers) [Example 249, (3RS)-3-(6-{4-[(2R,3R)-3-[(6-{4-[(2-fluorophenyl)amino]-3-(propan-2-yl)-3H-imidazo[4,5-c]pyridin-6-yl}-2-oxo-1-[(1S,3S)-3-(piperidin-1-yl)cyclobutyl]-1,2-dihydrospiro[indole-3,4′-piperidin]-1′-yl)carbonyl]-2-methylpyrrolidine-1-carbonyl]piperidin-1-yl}pyridin-3-yl)piperidine-2,6-dione] | 
10 | < 100 | 70 to 85 | CC(C)n1cnc2cc(-c3ccc4c(c3)N([C@H]3C[C@@H](N5CC6CCC(C6)C5)C3)C(=O)C43CCN(C(=O)C4(C)CCN(C(=O)CC5CCN(c6ccc(C7CCC(=O)NC7=O)cn6)CC5)CC4)CC3)nc(NC3CC3)c21 (mixture of isomers) [Example 223, (3RS)-3-[6-(4-{2-[4-({6-[4-(cyclopropylamino)-3-(propan-2-yl)-3H-imidazo[4,5-c]pyridin-6-yl]-2-oxo-1-[(1S,3S)-3-{3-azabicyclo[3.2.1]octan-3-yl}cyclobutyl]-1,2-dihydrospiro[indole-3,4′-piperidin]-1′-yl}carbonyl)-4-methylpiperidin-1-yl]-2-oxoethyl}piperidin-1-yl)pyridin-3-yl]piperidine-2,6-dione] | 
11 | < 100 | 50 to 70 | CC(C)n1cnc2cc(-c3ccc4c(c3)N([C@H]3C[C@@H](N5CCCCC5)C3)C(=O)C43CCN(C(=O)C45CCC(C)(C4)N(C(=O)C4CCN(c6ccc(C7CCC(=O)NC7=O)cn6)CC4)C5)CC3)nc(NC3CC3)c21 (mixture of isomers) [Example 251, (3RS)-3-(6-{4-[4-({6-[4-(cyclopropylamino)-3-(propan-2-yl)-3H-imidazo[4,5-c]pyridin-6-yl]-2-oxo-1-[(1S,3S)-3-(piperidin-1-yl)cyclobutyl]-1,2-dihydrospiro[indole-3,4′-piperidin]-1′-yl}carbonyl)-1-methyl-2-azabicyclo[2.2.1]heptane-2-carbonyl]piperidin-1-yl}pyridin-3-yl)piperidine-2,6-dione] | 
12 | < 100 | > 85 | CC(C)n1cnc2cc(-c3ccc4c(c3)N([C@H]3C[C@@H](N5CCCCC5)C3)C(=O)C43CCN(C(=O)C4CCN(S(=O)(=O)C5CCN(c6ccc(C7CCC(=O)NC7=O)cn6)CC5)CC4)CC3)nc(NC3CC3)c21 (mixture of isomers) [Example 160, (3RS)-3-[6-(4-{[4-({6-[4-(cyclopropylamino)-3-(propan-2-yl)-3H-imidazo[4,5-c]pyridin-6-yl]-2-oxo-1-[(1S,3S)-3-(piperidin-1-yl)cyclobutyl]-1,2-dihydrospiro[indole-3,4′-piperidin]-1′-yl}carbonyl)piperidin-1-yl]sulfonyl}piperidin-1-yl)pyridin-3-yl]piperidine-2,6-dione] | 
13 | < 100 | > 85 | CC(C)n1cnc2cc(-c3ccc4c(c3)N([C@H]3C[C@@H](N5CCCCC5)C3)C(=O)C43CCN(C(=O)[C@@H]4CCN(C(=O)[C@H]5CC[C@H](N(C)c6ccc(C7CCC(=O)NC7=O)cn6)CC5)C4)CC3)nc(Nc3ccccc3F)c21 (mixture of isomers) [Example 127, (3RS)-3-(6-{METHYL [(1R,4R)-4-[(3R)-3-[(6-{4-[(2-fluorophenyl)amino]-3-(propan-2-yl)-3H-imidazo[4,5-c]pyridin-6-yl}-2-oxo-1-[(1S,3S)-3-(piperidin-1-yl)cyclobutyl]-1,2-dihydrospiro[indole-3,4′-piperidin]-1′-yl)carbonyl]pyrrolidine-1-carbonyl]cyclohexyl]amino}pyridin-3-yl)piperidine-2,6-dione] | 
